Assay results: US20220119777A1, “CHEMILUMINESCENCE PHOTODYNAMIC VIRUS INACTIVATION OF RED BLOOD CELLS” (priority 2020, published 2022)

Tested on: bovine viral diarrhea virus (BVDV)
Assay: Hypericin-Luciferase inactivation of BVDV spiked into human red blood cell concentrate, TCID50 titration (CPE)
Assay type: cell-based
Conditions: for Unwashed Titer / Unwashed VRF / Washed Titer / Combined VRF / Washed VRF: no luciferase system; for Unwashed Titer: RT 2 h dark; for Unwashed VRF / Washed VRF: vs RBC control; for Combined VRF: washed sample vs unwashed RBC control
Experimental: Ten different combinations of Dulbecco's modified eagle medium without calcium and magnesium (DMEM (—Ca++, —Mg++)), RBCC, virus, hypericin, luciferin, ATP and luciferase were prepared to all contain equivalent titers of BVDV calculated to be 6.48 log 10TCID50/mL based on the titer of the original virus stock. The concentrations of hypericin tested were 0, 40 and 200 μg/mL. Luciferase was tested at 0, 0.8 and 4.0 μM. Luciferin and ATP were present at 80 and 800 μM respectively when luciferase was present and absent in the absence of luciferase.
The components were mixed and incubated at room temperature (RT) for 2 hours in the dark followed by titration of unwashed and washed samples as previously described. Washing rows of wells with dilutions 1 and 2 was performed 3 days post-infection. Final cytopathic effects (CPEs) were read 10 days post-infection.
Eleven different combinations of DMEM (—Ca++, —Mg++), RBCC, virus, hypericin, luciferin, adenosine triphosphate (ATP) and luciferase were prepared to all contain equivalent titers of BVDV calculated to be 6.48 log 10TCID50/mL (logs) based on the titer of the original virus stock. The concentrations of hypericin tested were 10, 20 and 40 μg/mL. Luciferase was tested at 0.16, 0.32 and 0.8 μM. Luciferin and ATP were present at 80 and 800 μM, respectively.
The components were mixed and incubated at RT for 2 hours in the dark followed by titration of unwashed and washed samples as previously described. Washing of rows of wells with dilutions 1 and 2 was performed […] post-infection. Final CPE were read 10 days post-infection.
Ten different combinations of DMEM (—Ca++, —Mg++), RBCC, virus, hypericin, luciferin, adenosine triphosphate (ATP) and luciferase were prepared to all contain equivalent titers of BVDV calculated to be 6.48 log10 TCID50/mL (logs) based on the titer of the original virus stock. The concentrations of hypericin tested were 40, 80 and 120 μg/mL. Luciferase was tested at 0.16, 0.32 and 0.8 μM. Luciferin and ATP were present at 80 and 800 μM, respectively.
The compounds were mixed and incubated at RT for 2 hours in the dark followed by titration of unwashed and washed samples as previously described. Washing rows of wells with dilutions 1 and 2 was performed 2 days post-infection. Final CPEs were read 10 days post-infection.

[1] = Ex 1 HH-LN: hypericin 200 μg/mL
[2] = Ex 1 HH-LN: hypericin 200 μg/mL, washed
[3] = Ex 1 HL-LN: hypericin 40 μg/mL, washed

Cc1cc(O)c2c(=O)c3c(O)cc(O)c4c5c(O)cc(O)c6c(=O)c7c(O)cc(C)c8c1c2c(c34)c(c78)c65 [Hypericin, hypericin]
Unwashed Titer [1]: 3.10 log10TCID50/mL
Unwashed VRF [1]: 3.25 log TCID50
Washed Titer [2]: 2.48 log10TCID50/mL
Combined VRF [1]: 3.87 log TCID50
Washed VRF [2]: 1.50 log TCID50
Unwashed Titer (Ex 1 HL-LN: hypericin 40 μg/mL): 3.48 log10TCID50/mL
Unwashed VRF (Ex 1 HL-LN: hypericin 40 μg/mL): 2.87 log TCID50
Washed Titer [3]: <2.34 log10TCID50/mL
Combined VRF (Ex 1 HL-LN: hypericin 40 μg/mL): >4.01 log TCID50
Washed VRF [3]: >1.64 log TCID50
VRFs, unwashed samples (Example 1, all hypericin treated unwashed samples, low (40 μg/mL) and high (200 μg/mL) doses): ~3 logs
combined VRFs (Example 3, hypericin 40 μg/mL, all levels of luciferase, washed): > 3.51 logs
VRF, washed samples (Example 3, hypericin dose of 40 μg/mL, all levels of luciferase, washed, complete inactivation/elimination): > 1.14 logs
optimal dose of hypericin for BVDV (summary of Examples 1-3, with different doses of luciferase): 40 µg/mL
